Values quoted from earlier work as cited in patent publication US20090081206A1, “METHOD AND PHARMACEUTICAL COMPOSITION FOR INHIBITING PREMATURE RAPTURE OF FETAL MEMBRANES, RIPENING OF UTERINE CERVIX AND PRETERM LABOR IN MAMMALS” (priority 1997, published 2009).
Read-outs that look alike come from different tables or passages of the source.

Key:
[1] = severe pregnancy-induced hypertension
[2] = patches, only 13 cases studied
[3] = intravaginal tablets
[4] = for need for additional oxytocin: compared with 100% in placebo
[5] = 3-mg intravaginal pessaries, mixed group of multigravidae and primigravidae
[6] = women with cervical Bishop score of 4-5
[7] = in vivo
[8] = not given; remark: listed apart in the source
[9] = after single 3-mg suppository alone

plasma half-life [7] [min] | Compound | reduction of capillary wedge pressure [1] [%] | reduction of mean arterial blood pressure [1] [%] | suppression of preterm labor, safety and tolerability [2] | patients induced successfully (achieving active labor) ([3]; multigravidae, 1-mg group) [%] | patients induced successfully (achieving active labor) ([3]; multigravidae, 5-mg group) [%] | patients induced successfully (achieving active labor) ([3]; primigravidae, 1-mg group) [%] | patients induced successfully (achieving active labor) ([3]; primigravidae, 5-mg group) [%] | established labor and delivered their infants without oxytocin augmentation ([4]; multigravidae, 2.5-mg vaginal suppositories) [%] | need for additional oxytocin ([4]; multigravidae) [%] | established labor and delivered their infants without oxytocin augmentation ([4]; primigravidae, 5-mg vaginal suppositories) [%] | need for additional oxytocin ([4]; primigravidae) [%] | treatment-to-delivery interval ([4]; shorter compared with controls) [h] | success rate for induced labor [5] [%] | mean time to labor [9] [h] | patients in whom labor was achieved [9] [%] | additional oxytocin augmentation needed (multifarious women) [%] | additional oxytocin augmentation needed (nulliparous women) [%] | vaginal birth within 24 hours [6] | antidiuretic and pressor activity relative to vasopressin [8] [%]
– | O=[N+]([O-])OCC(CO[N+](=O)[O-])O[N+](=O)[O-] [GTN, glycerol trinitrate] | 30 | 25 | safe, well-tolerated and non-invasive method of suppressing preterm labor | – | – | – | – | – | – | – | – | – | – | – | – | – | – | – | –
– | CCCCC[C@H](O)/C=C/[C@H]1[C@H](O)CC(=O)[C@@H]1C/C=C\CCCC(=O)O [PGE2, prostaglandin E2] | – | – | – | 39.1 | 62.2 | 29.6 | 62.9 | 81 | 19.1 | 63 | 37.5 | 7.6 to 11.6 | 55 | 1.5 | 98 | 14 | 71 | 17 of 19 | –
5 to 17 | CC[C@H](C)[C@@H]1NC(=O)[C@H](Cc2ccc(O)cc2)NC(=O)[C@@H](N)CSSC[C@@H](C(=O)N2CCC[C@H]2C(=O)N[C@@H](CC(C)C)C(=O)NCC(N)=O)NC(=O)[C@H](CC(N)=O)NC(=O)[C@H](CCC(N)=O)NC1=O [oxytocin] | – | – | – | – | – | – | – | – | – | – | – | – | – | – | – | – | – | 8 of 19 | 1
